Data: patent US11787796B2, “Plasma Kallikrein inhibitors and uses thereof” (Takeda Pharmaceutical Company Limited, priority 2019, dated 2023)

The molecules below were run against human activated kallikrein enzyme (Homo sapiens (Human), UniProt P03952) (assay: Plasma kallikrein inhibition assay with fluorogenic peptide substrate, 500 pM activated kallikrein format). Conditions: 500 pM activated kallikrein; 300 uM Pro-Phe-Arg-7-amido-4-methylcoumarin substrate; 30 min preincubation, 10 min reaction at RT; read-out: Primary Dose Response Assay: Average EC50.
Chain of human activated kallikrein enzyme (P03952 391-638): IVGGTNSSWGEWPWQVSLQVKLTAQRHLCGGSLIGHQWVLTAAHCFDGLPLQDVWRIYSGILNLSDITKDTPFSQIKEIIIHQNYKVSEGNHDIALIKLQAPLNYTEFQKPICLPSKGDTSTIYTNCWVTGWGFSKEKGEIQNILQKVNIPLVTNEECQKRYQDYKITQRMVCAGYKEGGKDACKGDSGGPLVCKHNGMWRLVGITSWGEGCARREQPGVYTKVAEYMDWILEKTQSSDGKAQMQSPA
Chain of human activated kallikrein enzyme (P03952 20-390 partner): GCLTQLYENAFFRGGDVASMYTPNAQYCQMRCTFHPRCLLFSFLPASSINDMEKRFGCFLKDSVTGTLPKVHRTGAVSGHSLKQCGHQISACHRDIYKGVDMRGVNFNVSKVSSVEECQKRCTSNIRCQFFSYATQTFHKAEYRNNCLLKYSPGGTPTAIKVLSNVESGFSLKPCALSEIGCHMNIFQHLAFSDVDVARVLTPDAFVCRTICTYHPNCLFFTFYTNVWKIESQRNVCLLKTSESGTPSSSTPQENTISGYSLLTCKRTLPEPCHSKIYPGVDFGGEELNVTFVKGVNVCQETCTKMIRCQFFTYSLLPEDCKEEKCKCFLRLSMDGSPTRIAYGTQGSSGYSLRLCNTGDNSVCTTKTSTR
Type: biochemical
Description: Example compounds were evaluated for inhibition of the human activated kallikrein enzyme in two formats of an assay employing a fluorogenic peptide substrate. In one assay format, the concentrations of reagents were as follows: 20 mM Tris pH 7.5, 1 mM EDTA, 150 mM sodium chloride, 0.1% PEG-400, 0.1% Triton X-100, […], 300 uM Pro-Phe-Arg-7-amido-4-methylcoumarin substrate. Prior to reaction initiation with substrate, enzyme and inhibitors were preincubated for 30 min at RT. After initiation with substrate, reactions were incubated for 10 min at RT and fluorescence emission at 460 nm from 380 nm excitation measured with a microplate reader. In another assay format, the concentrations of reagents were as follows: 20 mM Tris pH 7.5, 1 mM EDTA, 150 mM sodium chloride, 0.1% PEG-400, 0.1% Triton X-100, 5 pM activated kallikrein enzyme, 300 uM Pro-Phe-Arg-7-amido-4-methylcoumarin substrate. Prior to reaction initiation with substrate, enzyme and inhibitors were preincubated for 30 min at RT. After initiation with substrate, reactions were incubated for 18 h at RT and fluorescence emission at 460 nm from 380 nm excitation measured with a microplate reader.
Table II provides the results of the assay in the format with 500 pM activated kallikrein assay.
Table III provides comparative plasma kallikrein inhibition potency in the assay format with 500 pM activated kallikrein assay (described in detail in the preceding example).

Row | EC50 [nM] | Compound
1 | 100 to 2000 | CS(=O)(=O)c1ccccc1CNC(=O)c1cn(Cc2cn3cc(C4CC4)ccc3n2)nn1 [Example I-51, 1-((6-cyclopropylimidazo[1,2-a]pyridin-2-yl)methyl)-N-(2-(methylsulfonyl)benzyl)-1H-1,2,3-triazole-4-carboxamide]
2 | ≤ 1 | COc1ccc(-n2cnc(C(F)(F)F)n2)c(CNC(=O)c2cn(Cc3cn4cc(C5CC5)ccc4n3)nn2)c1F [Example I-52, 1-((6-cyclopropylimidazo[1,2-a]pyridin-2-yl)methyl)-N-(2-fluoro-3-methoxy-6-(3-(trifluoromethyl)-1H-1,2,4-triazol-1-yl)benzyl)-1H-1,2,3-triazole-4-carboxamide]
3 | 100 to 2000 | COc1ccc(S(C)(=O)=O)c(CNC(=O)c2cn(Cc3cn4cc(C5CC5)ccc4n3)nn2)c1F [Example I-53, 1-((6-cyclopropylimidazo[1,2-a]pyridin-2-yl)methyl)-N-(2-fluoro-3-methoxy-6-(methylsulfonyl)benzyl)-1H-1,2,3-triazole-4-carboxamide]
4 | ≤ 1 | COc1ccc(-n2cnnn2)c(CNC(=O)c2ccn(Cc3cn4cc(C5CC5)ccc4n3)c2)c1F [Example I-54, 1-((6-cyclopropylimidazo[1,2-a]pyridin-2-yl)methyl)-N-(2-fluoro-3-methoxy-6-(1H-tetrazol-1-yl)benzyl)-1H-pyrrole-3-carboxamide]
5 | ≤ 1 | COc1ccc(-n2cnnn2)c(CNC(=O)c2cn(Cc3cn4cc(C5CC5)ccc4n3)cn2)c1F [Example I-55, 1-((6-cyclopropylimidazo[1,2-a]pyridin-2-yl)methyl)-N-(2-fluoro-3-methoxy-6-(1H-tetrazol-1-yl)benzyl)-1H-imidazole-4-carboxamide]
6 | 1 to 10 | COc1ccc(S(=O)(=O)N(C)C)c(CNC(=O)c2cn(Cc3cn4cc(C5CC5)ccc4n3)nn2)c1F [Example I-57, 1-((6-cyclopropylimidazo[1,2-a]pyridin-2-yl)methyl)-N-(6-(N,N-dimethylsulfamoyl)-2-fluoro-3-methoxybenzyl)-1H-1,2,3-triazole-4-carboxamide]
7 | 2000 to 7100 | COc1ccc([S+](C)[O-])c(CNC(=O)c2cn(Cc3cn4cc(C5CC5)ccc4n3)nn2)c1F (stereo not drawn) [Example I-58, 1-((6-cyclopropylimidazo[1,2-a]pyridin-2-yl)methyl)-N-(2-fluoro-3-methoxy-6-(methylsulfinyl)benzyl)-1H-1,2,3-triazole-4-carboxamide]
8 | > 7100 | COc1ccc(-n2cnnn2)c(CNC(=O)c2cncn2Cc2cn3cc(C4CC4)ccc3n2)c1F [Example I-59, 1-((6-cyclopropylimidazo[1,2-a]pyridin-2-yl)methyl)-N-(2-fluoro-3-methoxy-6-(1H-tetrazol-1-yl)benzyl)-1H-imidazole-5-carboxamide]
9 | > 7100 | O=C(NCc1ccccc1)c1cn(Cc2cn3cc(C4CC4)ccc3n2)nn1 [Example I-60, N-benzyl-1-((6-cyclopropylimidazo[1,2-a]pyridin-2-yl)methyl)-1H-1,2,3-triazole-4-carboxamide]
10 | ≤ 1 | COc1ccc(-n2cncn2)c(CNC(=O)c2cn(Cc3cn4cc(C5CC5)ccc4n3)nn2)c1F [Example I-61, 1-((6-cyclopropylimidazo[1,2-a]pyridin-2-yl)methyl)-N-(2-fluoro-3-methoxy-6-(1H-1,2,4-triazol-1-yl)benzyl)-1H-1,2,3-triazole-4-carboxamide]
11 | 1 to 10 | COc1ccc(-n2ccc(C(F)(F)F)n2)c(CNC(=O)c2cn(Cc3cn4cc(C5CC5)ccc4n3)nn2)c1F [Example I-62, 1-((6-cyclopropylimidazo[1,2-a]pyridin-2-yl)methyl)-N-(2-fluoro-3-methoxy-6-(3-(trifluoromethyl)-1H-pyrazol-1-yl)benzyl)-1H-1,2,3-triazole-4-carboxamide]

Row | Compound | EC50 [nM]
12 | O=C(NCc1cn(Cc2cn3cc(C4CC4)ccc3n2)nn1)c1ncc2c(F)c(Cl)ccn12 [Example I-56, 7-chloro-N-((1-((6-cyclopropylimidazo[1,2-a]pyridin-2-yl)methyl)-1H-1,2,3-triazol-4-yl)methyl)-8-fluoroimidazo[1,5-a]pyridine-3-carboxamide] | > 7100
